From US20230085307A1, “PYRIDAZINONE COMPOUND AND HERBICIDE” (NISSAN CHEMICAL CORPORATION, priority 2019, published 2023)

Tests used:
late watergrass = test: Test Example 1: herbicidal activity, application before weed generation under submerged conditions (Table 16, symbol A); assay type: in vivo, late watergrass (Echinochloa oryzicola); conditions: amount of applied herbicide 320 g/ha
How it was run: (§1)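 Submerged Wagner pots (alluvial soil, 4 cm water) sown with weed seeds and planted with 2.5-leaf rice seedlings; emulsifiable concentrate diluted in water applied to water surface on sowing day. Held in greenhouse at 25-30 °C; injury scored 0-5 by herbicidal rate after three weeks.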

Japanese bulrush = test: Test Example 1: herbicidal activity, application before weed generation under submerged conditions (Table 16, symbol B); assay type: in vivo, Japanese bulrush (Schoenoplectus juncoides); conditions: amount of applied herbicide 320 g/ha
How it was run: as §1

oval-leafed pondweed = test: Test Example 1: herbicidal activity, application before weed generation under submerged conditions (Table 16, symbol C); assay type: in vivo, oval-leafed pondweed (Monochoria vaginalis); conditions: amount of applied herbicide 320 g/ha
How it was run: as §1

barnyard grass [1] = test: Test Example 3: herbicidal effect by foliage application, Wagner pot (Table 18, symbol H); assay type: in vivo, barnyard grass (Echinochloa crus-galli); conditions: 320 g/ha
How it was run: (§2)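 Plants were sown in alluvial soil held under 0.1–0.5 cm standing water and grown 14 days in a greenhouse at 25–30 °C. An emulsifiable formulation, water-diluted to the set dose, was then sprayed onto the foliage, and effects were scored three weeks later using previously defined criteria.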

Chinese sprangletop = test: Test Example 3: herbicidal effect by foliage application, Wagner pot (Table 18, symbol D); assay type: in vivo, chinese sprangletop (Leptochloa chinensis); conditions: 320 g/ha
How it was run: as §2

rice flat sedge = test: Test Example 3: herbicidal effect by foliage application, Wagner pot (Table 18, symbol E); assay type: in vivo, rice flat sedge (Cyperus iria); conditions: 320 g/ha
How it was run: as §2

southern crabgrass [2] = test: Test Example 4: herbicidal effect by soil treatment (Table 19, symbol F); assay type: in vivo, southern crabgrass (Digitaria ciliaris); conditions: amount of applied herbicide 320 g/ha
How it was run: (§3)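 Soil-surface application: an emulsion agent diluted with water to the predetermined dose is sprayed uniformly over seeds lying under roughly 1.5 cm of sterilized diluvial soil. Boxes stay in a greenhouse at 25° C. to 30° C. Three weeks later, each species is graded on previously defined criteria.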

green foxtail [3] = test: Test Example 4: herbicidal effect by soil treatment (Table 19, symbol G); assay type: in vivo, green foxtail (Setaria viridis); conditions: amount of applied herbicide 320 g/ha
How it was run: as §3

barnyard grass [4] = test: Test Example 4: herbicidal effect by soil treatment (Table 19, symbol H); assay type: in vivo, barnyard grass (Echinochloa crus-galli); conditions: amount of applied herbicide 320 g/ha
How it was run: as §3

wild oat [5] = test: Test Example 4: herbicidal effect by soil treatment (Table 19, symbol I); assay type: in vivo, wild oat (Avena fatua); conditions: amount of applied herbicide 320 g/ha
How it was run: as §3

blackgrass [6] = test: Test Example 4: herbicidal effect by soil treatment (Table 19, symbol J); assay type: in vivo, blackgrass (Alopecurus myosuroides); conditions: amount of applied herbicide 320 g/ha
How it was run: as §3

Italian ryegrass [7] = test: Test Example 4: herbicidal effect by soil treatment (Table 19, symbol K); assay type: in vivo, Italian ryegrass (Lolium multiflorum); conditions: amount of applied herbicide 320 g/ha
How it was run: as §3

windgrass [8] = test: Test Example 4: herbicidal effect by soil treatment (Table 19, symbol L); assay type: in vivo, windgrass (Apera spica-venti); conditions: amount of applied herbicide 320 g/ha
How it was run: as §3

velvetleaf [9] = test: Test Example 4: herbicidal effect by soil treatment (Table 19, symbol M); assay type: in vivo, velvetleaf (Abutilon theophrasti); conditions: amount of applied herbicide 320 g/ha
How it was run: as §3

redroot pigweed [10] = test: Test Example 4: herbicidal effect by soil treatment (Table 19, symbol N); assay type: in vivo, redroot pigweed (Amaranthus retroflexus); conditions: amount of applied herbicide 320 g/ha
How it was run: as §3

lambsquarters [11] = test: Test Example 4: herbicidal effect by soil treatment (Table 19, symbol O); assay type: in vivo, lambsquarters (Chenopodium album); conditions: amount of applied herbicide 320 g/ha
How it was run: as §3

chickweed [12] = test: Test Example 4: herbicidal effect by soil treatment (Table 19, symbol P); assay type: in vivo, common chickweed (Stellaria media); conditions: amount of applied herbicide 320 g/ha
How it was run: as §3

persian speedwell [13] = test: Test Example 4: herbicidal effect by soil treatment (Table 19, symbol R); assay type: in vivo, Persian speedwell (Veronica persica); conditions: amount of applied herbicide 320 g/ha
How it was run: as §3

southern crabgrass [14] = test: Test Example 5: herbicidal effect by foliage application, plastic box (Table 20, symbol F); assay type: in vivo, southern crabgrass (Digitaria ciliaris); conditions: amount of applied herbicide 320 g/ha; foliage application after 14-day growth; evaluated three weeks after application
How it was run: (§4)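 Sow seeds spot-wise in sterilized diluvial soil; cover with ~1.5 cm soil. Grow 14 days in greenhouse, 25° C. to 30° C. Spray foliage with emulsion diluted to predetermined amount. Rate effect after 3 weeks.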

green foxtail [15] = test: Test Example 5: herbicidal effect by foliage application, plastic box (Table 20, symbol G); assay type: in vivo, green foxtail (Setaria viridis); conditions: amount of applied herbicide 320 g/ha; foliage application after 14-day growth; evaluated three weeks after application
How it was run: as §4

barnyard grass [16] = test: Test Example 5: herbicidal effect by foliage application, plastic box (Table 20, symbol H); assay type: in vivo, barnyard grass (Echinochloa crus-galli); conditions: amount of applied herbicide 320 g/ha; foliage application after 14-day growth; evaluated three weeks after application
How it was run: as §4

wild oat [17] = test: Test Example 5: herbicidal effect by foliage application, plastic box (Table 20, symbol I); assay type: in vivo, wild oat (Avena fatua); conditions: amount of applied herbicide 320 g/ha; foliage application after 14-day growth; evaluated three weeks after application
How it was run: as §4

blackgrass [18] = test: Test Example 5: herbicidal effect by foliage application, plastic box (Table 20, symbol J); assay type: in vivo, blackgrass (Alopecurus myosuroides); conditions: amount of applied herbicide 320 g/ha; foliage application after 14-day growth; evaluated three weeks after application
How it was run: as §4

Italian ryegrass [19] = test: Test Example 5: herbicidal effect by foliage application, plastic box (Table 20, symbol K); assay type: in vivo, Italian ryegrass (Lolium multiflorum); conditions: amount of applied herbicide 320 g/ha; foliage application after 14-day growth; evaluated three weeks after application
How it was run: as §4

windgrass [20] = test: Test Example 5: herbicidal effect by foliage application, plastic box (Table 20, symbol L); assay type: in vivo, windgrass (Apera spica-venti); conditions: amount of applied herbicide 320 g/ha; foliage application after 14-day growth; evaluated three weeks after application
How it was run: as §4

velvetleaf [21] = test: Test Example 5: herbicidal effect by foliage application, plastic box (Table 20, symbol M); assay type: in vivo, velvetleaf (Abutilon theophrasti); conditions: amount of applied herbicide 320 g/ha; foliage application after 14-day growth; evaluated three weeks after application
How it was run: as §4

redroot pigweed [22] = test: Test Example 5: herbicidal effect by foliage application, plastic box (Table 20, symbol N); assay type: in vivo, redroot pigweed (Amaranthus retroflexus); conditions: amount of applied herbicide 320 g/ha; foliage application after 14-day growth; evaluated three weeks after application
How it was run: as §4

lambsquarters [23] = test: Test Example 5: herbicidal effect by foliage application, plastic box (Table 20, symbol O); assay type: in vivo, lambsquarters (Chenopodium album); conditions: amount of applied herbicide 320 g/ha; foliage application after 14-day growth; evaluated three weeks after application
How it was run: as §4

chickweed [24] = test: Test Example 5: herbicidal effect by foliage application, plastic box (Table 20, symbol P); assay type: in vivo, common chickweed (Stellaria media); conditions: amount of applied herbicide 320 g/ha; foliage application after 14-day growth; evaluated three weeks after application
How it was run: as §4

persian speedwell [25] = test: Test Example 5: herbicidal effect by foliage application, plastic box (Table 20, symbol R); assay type: in vivo, Persian speedwell (Veronica persica); conditions: amount of applied herbicide 320 g/ha; foliage application after 14-day growth; evaluated three weeks after application
How it was run: as §4

In the case of `Cc1nn(C)c(=O)c(-c2c(-c3ccccc3OC(C)C)sc3cc(F)c(F)cc23)c1O` [5-018], the “Herbicidal effect, A: late watergrass” value (late watergrass) is reported as 0 (Herbicidal rate of 5% or less (almost no effect)), the “Herbicidal effect, B: Japanese bulrush” value (Japanese bulrush) is reported as 5 (Herbicidal rate of 90% or more (almost completely withered)) and the “Herbicidal effect, C: oval-leafed pondweed” value (oval-leafed pondweed) is reported as 5 (Herbicidal rate of 90% or more (almost completely withered)). For the same compound, the “herbicidal effect on barnyard grass (H)” value (barnyard grass [1]) was 4 (Herbicidal rate of 70% or more and less than 90%), the “herbicidal effect on Chinese sprangletop (D)” value (Chinese sprangletop) was 0 (Herbicidal rate of 5% or less (almost no effect)) and the “herbicidal effect on rice flat sedge (E)” value (rice flat sedge) was 3 (Herbicidal rate of 40% or more and less than 70%). For the same compound, the “F: southern crabgrass, herbicidal effect grade” value (southern crabgrass [2]) was 0 (Herbicidal rate of 5% or less (almost no effect)), the “G: green foxtail, herbicidal effect grade” value (green foxtail [3]) was 3 (Herbicidal rate of 40% or more and less than 70%) and the “H: barnyard grass, herbicidal effect grade” value (barnyard grass [4]) was 2 (Herbicidal rate of 20% or more and less than 40%). For the same compound, the “I: wild oat, herbicidal effect grade” value (wild oat [5]) was 0 (Herbicidal rate of 5% or less (almost no effect)), the “J: blackgrass, herbicidal effect grade” value (blackgrass [6]) was 0 (Herbicidal rate of 5% or less (almost no effect)) and the “K: Italian ryegrass, herbicidal effect grade” value (Italian ryegrass [7]) was 0 (Herbicidal rate of 5% or less (almost no effect)). The “L: windgrass, herbicidal effect grade” value (windgrass [8]) was 0 (Herbicidal rate of 5% or less (almost no effect)), the “M: velvetleaf, herbicidal effect grade” value (velvetleaf [9]) was 0 (Herbicidal rate of 5% or less (almost no effect)) and the “N: redroot pigweed, herbicidal effect grade” value (redroot pigweed [10]) was 2 (Herbicidal rate of 20% or more and less than 40%). For the same compound, the “O: lambsquarters, herbicidal effect grade” value (lambsquarters [11]) was 1 (Herbicidal rate of 5% or more and less than 20%), the “P: chickweed, herbicidal effect grade” value (chickweed [12]) was 4 (Herbicidal rate of 70% or more and less than 90%) and the “R: persian speedwell, herbicidal effect grade” value (persian speedwell [13]) was 3 (Herbicidal rate of 40% or more and less than 70%). The “Herbicidal effect by foliage application, F: southern crabgrass” value (southern crabgrass [14]) was 0 (Herbicidal rate of 5% or less (almost no effect)), the “Herbicidal effect by foliage application, G: green foxtail” value (green foxtail [15]) was 2 (Herbicidal rate of 20% or more and less than 40%) and the “Herbicidal effect by foliage application, H: barnyard grass” value (barnyard grass [16]) was 0 (Herbicidal rate of 5% or less (almost no effect)). For the same compound, the “Herbicidal effect by foliage application, I: wild oat” value (wild oat [17]) was 0 (Herbicidal rate of 5% or less (almost no effect)), the “Herbicidal effect by foliage application, J: blackgrass” value (blackgrass [18]) was 1 (Herbicidal rate of 5% or more and less than 20%) and the “Herbicidal effect by foliage application, K: Italian ryegrass” value (Italian ryegrass [19]) was 0 (Herbicidal rate of 5% or less (almost no effect)). For the same compound, the “Herbicidal effect by foliage application, L: windgrass” value (windgrass [20]) was 0 (Herbicidal rate of 5% or less (almost no effect)), the “Herbicidal effect by foliage application, M: velvetleaf” value (velvetleaf [21]) was 4 (Herbicidal rate of 70% or more and less than 90%) and the “Herbicidal effect by foliage application, N: redroot pigweed” value (redroot pigweed [22]) was 1 (Herbicidal rate of 5% or more and less than 20%). For the same compound, the “Herbicidal effect by foliage application, O: lambsquarters” value (lambsquarters [23]) was 0 (Herbicidal rate of 5% or less (almost no effect)), the “Herbicidal effect by foliage application, P: chickweed” value (chickweed [24]) was 5 (Herbicidal rate of 90% or more (almost completely withered)) and the “Herbicidal effect by foliage application, R: persian speedwell” value (persian speedwell [25]) was 5 (Herbicidal rate of 90% or more (almost completely withered)).
